Measured values taken from patent US11840686B2, “Modulation of prekallikrein (PKK) expression” (Ionis Pharmaceuticals, Inc., priority 2013, dated 2023).
Strand notation (5' to 3'): a small letter for the sugar, then the base; units joined by * are phosphorothioate-linked, units joined directly phosphodiester-linked; [ ] holds rarer units or linkages, { } end groups; capitals alone tell only the bases. e = 2'-O-(2-methoxyethyl) (MOE); [5mC] = 5-methylcytosine; d = 2'-deoxy (DNA)

Key:
human PKK mRNA [1] = assay: Dose-dependent antisense inhibition of human PKK in HepaRG cells, 0.19-5.00 uM (Example 5); assay type: cell-based
How it was run: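 HepaRG cells (20,000/well) were electroporated with antisense oligonucleotide at 0.19, 0.56, 1.67 and 5.00 μM and treated for about 16 hours. PKK mRNA was quantified by qRT-PCR with primer probe set RTS3454, normalised to RIBOGREEN total RNA, and IC50 was derived per oligonucleotide.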

human PKK mRNA [2] = assay: Antisense inhibition of human PKK mRNA in HepaRG cells, 5,000 nM (Example 2); assay type: cell-based
How it was run: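 HepaRG cells (20,000/well) electroporated with 5,000 nM MOE gapmer (phosphorothioate backbone, 5-methylcytosines) and harvested after ~24 h. PKK mRNA measured by qRT-PCR with primer probe set RTS3454, normalized to RIBOGREEN total RNA; percent inhibition versus untreated cells.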

[3] = HepaRG cells, electroporation, approximately 16 hours, Table 39
[4] = 4 point dose response, HepaRG cells, Table 39
[5] = HepaRG cells, electroporation, approximately 16 hours, Table 38
[6] = 4 point dose response, HepaRG cells, Table 38
[7] = Table 13, human PKK mRNA in HepaRG cells, 5-10-5 gapmers
[8] = HepaRG cells, electroporation with 5,000 nM antisense oligonucleotide, approximately 24 hours, PKK mRNA by RT-PCR (RTS3454), relative to untreated control cells, Table 6 experiment
[9] = Table 34, HepaRG, electroporation, ~16 h
[10] = Table 34, PKK mRNA, HepaRG, electroporation, ~16 h
[11] = HepaRG cells, electroporation with 5,000 nM antisense oligonucleotide, approximately 24 hours, PKK mRNA by RT-PCR (RTS3454), relative to untreated control cells, Table 5 experiment
[12] = HepaRG cells, electroporation, approximately 16 hours, Table 41
[13] = 4 point dose response, HepaRG cells, Table 41
[14] = HepaRG cells, electroporation, approximately 16 hours, Table 40
[15] = 4 point dose response, HepaRG cells, Table 40
[16] = HepaRG cells, 5,000 nM antisense oligonucleotide, 5-10-5 gapmers, Table 16
[17] = HepaRG cells, electroporation, approximately 16 hours, Table 37
[18] = 4 point dose response, HepaRG cells, Table 37
[19] = HepaRG cells, electroporation, approximately 16 hours, Table 35
[20] = 4 point dose response, HepaRG cells, Table 35

547633 (antisense eA*eT*e[5mC]*eA*e[5mC]*dT*dG*dT*d[5mC]*d[5mC]*dT*dA*dT*dA*dT*e[5mC]*eA*e[5mC]*eT*e[5mC]) [compound 547633]
percent inhibition of PKK at 0.19 μM (human PKK mRNA [1]; [3]): 12%
percent inhibition of PKK at 0.56 μM (human PKK mRNA [1]; [3]): 46%
percent inhibition of PKK at 1.67 μM (human PKK mRNA [1]; [3]): 78%
IC50 (human PKK mRNA [1]; [4]): 700 nM
% inhibition (human PKK mRNA [2]; human PKK mRNA, HepaRG cells, 5-10-5 motif oligonucleotides targeting SEQ ID NO: 1 and 10): 87%

546834 (eA*eA*e[5mC]*eT*e[5mC]*dT*dA*dA*d[5mC]*dA*dG*dT*dA*dT*d[5mC]*eA*e[5mC]*eT*eG*eT; antisense) [compound 546834]
percent inhibition of PKK at 0.19 μM (human PKK mRNA [1]; [5]): 1%
percent inhibition of PKK at 0.56 μM (human PKK mRNA [1]; [5]): 0%
percent inhibition of PKK at 1.67 μM (human PKK mRNA [1]; [5]): 30%
percent inhibition of PKK at 5.00 μM (human PKK mRNA [1]; [5]): 83%
IC50 (human PKK mRNA [1]; [6]): 2300 nM
% inhibition (human PKK mRNA [2]; [7]): 86%

547337 (antisense eA*eA*e[5mC]*eT*e[5mC]*d[5mC]*dT*dT*dT*dA*dT*dA*dA*dA*dT*eG*eT*e[5mC]*eT*e[5mC]) [compound 547337]
percent inhibition of PKK at 0.19 μM (human PKK mRNA [1]; [5]): 23%
percent inhibition of PKK at 0.56 μM (human PKK mRNA [1]; [5]): 41%
percent inhibition of PKK at 1.67 μM (human PKK mRNA [1]; [5]): 55%
percent inhibition of PKK at 5.00 μM (human PKK mRNA [1]; [5]): 79%
IC50 (human PKK mRNA [1]; [6]): 1000 nM
% inhibition (human PKK mRNA [2]; [8]): 84%

546158 (e[5mC]*eT*eT*eG*eG*dG*dT*dG*dG*dA*dA*dT*dG*dT*dG*e[5mC]*eA*e[5mC]*e[5mC]*eT; antisense) [compound 546158]
percent inhibition of PKK at 0.19 μM (human PKK mRNA [1]; [9]): 5%
percent inhibition of PKK at 0.56 μM (human PKK mRNA [1]; [9]): 45%
percent inhibition of PKK at 1.67 μM (human PKK mRNA [1]; [9]): 79%
percent inhibition of PKK at 5.00 μM (human PKK mRNA [1]; [9]): 83%
IC50 (human PKK mRNA [1]; [10]): 700 nM
% inhibition (human PKK mRNA [2]; [11]): 95%

547564 (e[5mC]*e[5mC]*e[5mC]*eT*e[5mC]*dT*dG*dT*d[5mC]*dT*dT*dA*dG*dA*dT*eG*eT*e[5mC]*e[5mC]*eA; antisense) [compound 547564]
percent inhibition of PKK at 5.00 μM (human PKK mRNA [1]; [12]): 97%
percent inhibition of PKK at 0.19 0μM (human PKK mRNA [1]; [12]): 46%
percent inhibition of PKK at 0.56 0μM (human PKK mRNA [1]; [12]): 66%
percent inhibition of PKK at 1.67 1μM (human PKK mRNA [1]; [12]): 90%
IC50 (human PKK mRNA [1]; [13]): 200 nM
percent inhibition of PKK at 0.19 μM (human PKK mRNA [1]; [9]): 51%
percent inhibition of PKK at 0.56 μM (human PKK mRNA [1]; [9]): 48%
percent inhibition of PKK at 1.67 μM (human PKK mRNA [1]; [9]): 82%
percent inhibition of PKK at 5.00 μM (human PKK mRNA [1]; [9]): 90%
IC50 (human PKK mRNA [1]; [10]): 200 nM
% inhibition (human PKK mRNA [2]; [7]): 94%

547780 (antisense e[5mC]*e[5mC]*e[5mC]*e[5mC]*eT*d[5mC]*dT*dT*dA*dA*dA*dT*dA*dG*d[5mC]*eA*e[5mC]*eA*eT*eG) [compound 547780]
percent inhibition of PKK at 0.19 μM (human PKK mRNA [1]; [14]): 0%
percent inhibition of PKK at 0.56 μM (human PKK mRNA [1]; [14]): 10%
percent inhibition of PKK at 1.67 μM (human PKK mRNA [1]; [14]): 36%
percent inhibition of PKK at 5.00 μM (human PKK mRNA [1]; [14]): 55%
IC50 (human PKK mRNA [1]; [15]): 3900 nM
% inhibition (human PKK mRNA [2]; HepaRG cells, 5,000 nM antisense oligonucleotide, 5-10-5 gapmers, Table 17): 67%

547718 (eA*eT*eA*eA*eA*dG*dT*dG*d[5mC]*dG*dA*dT*dT*dA*dA*eG*e[5mC]*e[5mC]*e[5mC]*e[5mC]; antisense) [compound 547718]
percent inhibition of PKK at 0.19 μM (human PKK mRNA [1]; [3]): 36%
percent inhibition of PKK at 0.56 μM (human PKK mRNA [1]; [3]): 12%
percent inhibition of PKK at 1.67 μM (human PKK mRNA [1]; [3]): 69%
percent inhibition of PKK at 5.00 μM (human PKK mRNA [1]; [3]): 74%
IC50 (human PKK mRNA [1]; [4]): 1600 nM
% inhibition (human PKK mRNA [2]; [16]): 86%

547360 (eA*eA*e[5mC]*e[5mC]*eA*dA*dT*dT*dT*d[5mC]*dT*dG*dA*dA*dA*eG*eG*eG*e[5mC]*eA; antisense) [compound 547360]
percent inhibition of PKK at 0.19 μM (human PKK mRNA [1]; [17]): 8%
percent inhibition of PKK at 0.56 μM (human PKK mRNA [1]; [17]): 27%
percent inhibition of PKK at 1.67 μM (human PKK mRNA [1]; [17]): 76%
percent inhibition of PKK at 5.00 μM (human PKK mRNA [1]; [17]): 76%
IC50 (human PKK mRNA [1]; [18]): 800 nM
% inhibition (human PKK mRNA [2]; [8]): 88%

547273 (antisense eT*eG*eA*eG*eT*d[5mC]*dT*d[5mC]*dT*dT*dG*dT*d[5mC]*dA*d[5mC]*eT*eT*eA*eA*eA) [compound 547273]
percent inhibition of PKK at 0.19 μM (human PKK mRNA [1]; [19]): 44%
percent inhibition of PKK at 0.56 μM (human PKK mRNA [1]; [19]): 69%
percent inhibition of PKK at 1.67 μM (human PKK mRNA [1]; [19]): 87%
percent inhibition of PKK at 5.00 μM (human PKK mRNA [1]; [19]): 87%
percent inhibition of PKK at 5.00 μM (human PKK mRNA [1]; [12]): 83%
percent inhibition of PKK at 0.19 0μM (human PKK mRNA [1]; [12]): 0%
percent inhibition of PKK at 0.56 0μM (human PKK mRNA [1]; [12]): 60%
percent inhibition of PKK at 1.67 1μM (human PKK mRNA [1]; [12]): 82%
IC50 (human PKK mRNA [1]; [20]): 200 nM
IC50 (human PKK mRNA [1]; [13]): 600 nM
% inhibition (human PKK mRNA [2]; [11]): 93%

546291 (antisense e[5mC]*eA*eG*eG*eG*d[5mC]*d[5mC]*dA*d[5mC]*dT*d[5mC]*dT*d[5mC]*d[5mC]*d[5mC]*e[5mC]*eA*eA*eG*eA) [compound 546291]
percent inhibition of PKK at 0.19 μM (human PKK mRNA [1]; [14]): 22%
percent inhibition of PKK at 0.56 μM (human PKK mRNA [1]; [14]): 32%
percent inhibition of PKK at 1.67 μM (human PKK mRNA [1]; [14]): 34%
percent inhibition of PKK at 5.00 μM (human PKK mRNA [1]; [14]): 72%
IC50 (human PKK mRNA [1]; [15]): 2000 nM
% inhibition (human PKK mRNA [2]; Table 8, HepaRG cells, electroporation with 5,000 nM antisense oligonucleotide, approx. 24 hours, PKK mRNA by RT-PCR (RTS3454), relative to untreated control cells): 81%

546967 (e[5mC]*eA*e[5mC]*e[5mC]*eG*d[5mC]*dG*d[5mC]*dG*dA*dA*dT*dG*d[5mC]*d[5mC]*eT*eG*e[5mC]*e[5mC]*eT; antisense) [compound 546967]
percent inhibition of PKK at 0.19 μM (human PKK mRNA [1]; [19]): 20%
percent inhibition of PKK at 0.56 μM (human PKK mRNA [1]; [19]): 39%
percent inhibition of PKK at 1.67 μM (human PKK mRNA [1]; [19]): 76%
percent inhibition of PKK at 5.00 μM (human PKK mRNA [1]; [19]): 71%
percent inhibition of PKK at 5.00 μM (human PKK mRNA [1]; [12]): 92%
percent inhibition of PKK at 0.19 0μM (human PKK mRNA [1]; [12]): 22%
percent inhibition of PKK at 0.56 0μM (human PKK mRNA [1]; [12]): 45%
percent inhibition of PKK at 1.67 1μM (human PKK mRNA [1]; [12]): 74%
IC50 (human PKK mRNA [1]; [20]): 700 nM
IC50 (human PKK mRNA [1]; [13]): 700 nM
% inhibition (human PKK mRNA [2]; [16]): 93%

547368 (eG*e[5mC]*eA*eT*e[5mC]*dT*dG*dG*dA*dG*dT*dG*dA*dG*dA*eA*e[5mC]*e[5mC]*e[5mC]*eT; antisense) [compound 547368]
percent inhibition of PKK at 0.19 μM (human PKK mRNA [1]; [17]): 0%
percent inhibition of PKK at 0.56 μM (human PKK mRNA [1]; [17]): 0%
percent inhibition of PKK at 1.67 μM (human PKK mRNA [1]; [17]): 31%
percent inhibition of PKK at 5.00 μM (human PKK mRNA [1]; [17]): 80%
IC50 (human PKK mRNA [1]; [18]): 2500 nM
% inhibition (human PKK mRNA [2]; Table 7, HepaRG cells, electroporation with 5,000 nM antisense oligonucleotide, approx. 24 hours, PKK mRNA by RT-PCR (RTS3454), relative to untreated control cells): 89%
